{"source": "patent US12435044B2", "about": "“Pyridazinone herbicides and pyridazinone intermediates used to prepare a herbicide” (FMC Corporation, priority 2018, dated 2025)", "assay_in_all_cases": "Test K pre-/postemergence, mixtures of Cpd. No. 20 with metribuzin or rimsulfuron", "type_in_all_cases": "in vivo", "key": {"[1]": {"test_system": "common ragweed (AMBEL; Ambrosia artemisiifolia)", "excerpt": "(§1) This test evaluated the effect of mixtures of Cpd. No. 20 with metribuzin or rimsulfuron on several plant species. Seeds of plant species selected from corn (ZEAMD; Zea mays, cv. ‘Pioneer 1184’), soybean (GLXMA; Glycine max, cv. Pioneer 35T58), giant foxtail (SETFA; Setaria faberi), palmer amaranth (AMAPA; Amaranthus palmeri), common waterhemp (AMATU; Amaranthus rudis), mare's tail (ERICA; Conyza canadensis), and common ragweed (AMBEL; Ambrosia artemisiifolia) were planted in pots containing Tama Silt Loam soil and treated preemergence with a directed soil spray using test chemicals formulated in a non-phytotoxic solvent mixture which included a surfactant.\n(§2) At the same time, plants selected from these crop and weed species were planted in pots containing Redi-Earth® planting medium (Scotts Company, 14111 Scottslawn Road, Marysville, Ohio 43041) comprising spaghnum peat moss, vermiculite, wetting agent and starter nutrients and treated postemergence with test chemicals formulated in the same manner. Plants ranged in height from 2 to 10 cm and were in the one- to two-leaf stage for the postemergence treatment. Treated plants and untreated controls were maintained in a greenhouse for approximately 14-21 d, after which time all treated plants were compared to untreated controls and visually evaluated for injury. Plant response ratings, summarized in Tables K1 to K4, are based on a 0 to 100 scale where 0 is no effect and 100 is complete control. A dash (-) response means no test result. Test results are presented as a mean of 4 reps."}, "[2]": {"test_system": "common waterhemp (AMATU; Amaranthus rudis)", "excerpt": "as §1, §2"}, "[3]": {"test_system": "corn (ZEAMD; Zea mays, cv. ‘Pioneer 1184’)", "excerpt": "as §1, §2"}, "[4]": {"test_system": "giant foxtail (SETFA; Setaria faberi)", "excerpt": "as §1, §2"}, "[5]": {"test_system": "mare's tail (ERICA; Conyza canadensis)", "excerpt": "as §1, §2"}, "[6]": {"test_system": "palmer amaranth (AMAPA; Amaranthus palmeri)", "excerpt": "as §1, §2"}, "[7]": {"test_system": "soybean (GLXMA; Glycine max, cv. Pioneer 35T58)", "excerpt": "as §1, §2"}}, "data": [{"smiles": "CSc1nnc(C(C)(C)C)c(=O)n1N", "note": "[Metribuzin, metribuzin, reference compound]", "values": [{"measurement": "AMBEL plant response rating, 0 to 100 scale", "setting": "[1]; postemergence, 62 g a.i./ha", "value": 55}, {"measurement": "AMBEL plant response rating, 0 to 100 scale", "setting": "[1]; postemergence, 125 g a.i./ha", "value": 62}, {"measurement": "AMBEL plant response rating, 0 to 100 scale", "setting": "[1]; preemergence, 62 g a.i./ha", "value": 40}, {"measurement": "AMBEL plant response rating, 0 to 100 scale", "setting": "[1]; preemergence, 125 g a.i./ha", "value": 100}, {"measurement": "AMATU plant response rating, 0 to 100 scale", "setting": "[2]; postemergence, 62 g a.i./ha", "value": 37}, {"measurement": "AMATU plant response rating, 0 to 100 scale", "setting": "[2]; postemergence, 125 g a.i./ha", "value": 82}, {"measurement": "AMATU plant response rating, 0 to 100 scale", "setting": "[2]; preemergence, 62 g a.i./ha", "value": 53}, {"measurement": "AMATU plant response rating, 0 to 100 scale", "setting": "[2]; preemergence, 125 g a.i./ha", "value": 86}, {"measurement": "ZEAMD plant response rating, 0 to 100 scale", "setting": "[3]; postemergence, 62 g a.i./ha", "value": 0}, {"measurement": "ZEAMD plant response rating, 0 to 100 scale", "setting": "[3]; postemergence, 125 g a.i./ha", "value": 10}, {"measurement": "ZEAMD plant response rating, 0 to 100 scale", "setting": "[3]; preemergence, 62 g a.i./ha", "value": 0}, {"measurement": "ZEAMD plant response rating, 0 to 100 scale", "setting": "[3]; preemergence, 125 g a.i./ha", "value": 0}, {"measurement": "SETFA plant response rating, 0 to 100 scale", "setting": "[4]; postemergence, 62 g a.i./ha", "value": 0}, {"measurement": "SETFA plant response rating, 0 to 100 scale", "setting": "[4]; postemergence, 125 g a.i./ha", "value": 10}, {"measurement": "SETFA plant response rating, 0 to 100 scale", "setting": "[4]; preemergence, 62 g a.i./ha", "value": 30}, {"measurement": "SETFA plant response rating, 0 to 100 scale", "setting": "[4]; preemergence, 125 g a.i./ha", "value": 80}, {"measurement": "ERICA plant response rating, 0 to 100 scale", "setting": "[5]; postemergence, 62 g a.i./ha", "value": 10}, {"measurement": "ERICA plant response rating, 0 to 100 scale", "setting": "[5]; postemergence, 125 g a.i./ha", "value": 13}, {"measurement": "ERICA plant response rating, 0 to 100 scale", "setting": "[5]; preemergence, 62 g a.i./ha", "value": 100}, {"measurement": "ERICA plant response rating, 0 to 100 scale", "setting": "[5]; preemergence, 125 g a.i./ha", "value": 100}, {"measurement": "AMAPA plant response rating, 0 to 100 scale", "setting": "[6]; postemergence, 62 g a.i./ha", "value": 35}, {"measurement": "AMAPA plant response rating, 0 to 100 scale", "setting": "[6]; postemergence, 125 g a.i./ha", "value": 47}, {"measurement": "AMAPA plant response rating, 0 to 100 scale", "setting": "[6]; preemergence, 62 g a.i./ha", "value": 78}, {"measurement": "AMAPA plant response rating, 0 to 100 scale", "setting": "[6]; preemergence, 125 g a.i./ha", "value": 70}, {"measurement": "GLXMA plant response rating, 0 to 100 scale", "setting": "[7]; postemergence, 62 g a.i./ha", "value": 33}, {"measurement": "GLXMA plant response rating, 0 to 100 scale", "setting": "[7]; postemergence, 125 g a.i./ha", "value": 53}, {"measurement": "GLXMA plant response rating, 0 to 100 scale", "setting": "[7]; preemergence, 62 g a.i./ha", "value": 0}, {"measurement": "GLXMA plant response rating, 0 to 100 scale", "setting": "[7]; preemergence, 125 g a.i./ha", "value": 0}]}, {"smiles": "CCS(=O)(=O)c1cccnc1S(=O)(=O)NC(=O)Nc1nc(OC)cc(OC)n1", "note": "[Rimsulfuron, rimsulfuron, reference compound]", "values": [{"measurement": "AMBEL plant response rating, 0 to 100 scale", "setting": "[1]; postemergence, 8 g a.i./ha", "value": 40}, {"measurement": "AMBEL plant response rating, 0 to 100 scale", "setting": "[1]; postemergence, 16 g a.i./ha", "value": 60}, {"measurement": "AMBEL plant response rating, 0 to 100 scale", "setting": "[1]; preemergence, 8 g a.i./ha", "value": 0}, {"measurement": "AMBEL plant response rating, 0 to 100 scale", "setting": "[1]; preemergence, 16 g a.i./ha", "value": 43}, {"measurement": "AMATU plant response rating, 0 to 100 scale", "setting": "[2]; postemergence, 8 g a.i./ha", "value": 75}, {"measurement": "AMATU plant response rating, 0 to 100 scale", "setting": "[2]; postemergence, 16 g a.i./ha", "value": 77}, {"measurement": "AMATU plant response rating, 0 to 100 scale", "setting": "[2]; preemergence, 8 g a.i./ha", "value": 51}, {"measurement": "AMATU plant response rating, 0 to 100 scale", "setting": "[2]; preemergence, 16 g a.i./ha", "value": 73}, {"measurement": "ZEAMD plant response rating, 0 to 100 scale", "setting": "[3]; postemergence, 8 g a.i./ha", "value": 0}, {"measurement": "ZEAMD plant response rating, 0 to 100 scale", "setting": "[3]; postemergence, 16 g a.i./ha", "value": 10}, {"measurement": "ZEAMD plant response rating, 0 to 100 scale", "setting": "[3]; preemergence, 8 g a.i./ha", "value": 0}, {"measurement": "ZEAMD plant response rating, 0 to 100 scale", "setting": "[3]; preemergence, 16 g a.i./ha", "value": 0}, {"measurement": "SETFA plant response rating, 0 to 100 scale", "setting": "[4]; postemergence, 8 g a.i./ha", "value": 80}, {"measurement": "SETFA plant response rating, 0 to 100 scale", "setting": "[4]; postemergence, 16 g a.i./ha", "value": 97}, {"measurement": "SETFA plant response rating, 0 to 100 scale", "setting": "[4]; preemergence, 8 g a.i./ha", "value": 50}, {"measurement": "SETFA plant response rating, 0 to 100 scale", "setting": "[4]; preemergence, 16 g a.i./ha", "value": 73}, {"measurement": "ERICA plant response rating, 0 to 100 scale", "setting": "[5]; postemergence, 8 g a.i./ha", "value": 50}, {"measurement": "ERICA plant response rating, 0 to 100 scale", "setting": "[5]; postemergence, 16 g a.i./ha", "value": 70}, {"measurement": "ERICA plant response rating, 0 to 100 scale", "setting": "[5]; preemergence, 8 g a.i./ha", "value": 95}, {"measurement": "ERICA plant response rating, 0 to 100 scale", "setting": "[5]; preemergence, 16 g a.i./ha", "value": 98}, {"measurement": "AMAPA plant response rating, 0 to 100 scale", "setting": "[6]; postemergence, 8 g a.i./ha", "value": 60}, {"measurement": "AMAPA plant response rating, 0 to 100 scale", "setting": "[6]; postemergence, 16 g a.i./ha", "value": 60}, {"measurement": "AMAPA plant response rating, 0 to 100 scale", "setting": "[6]; preemergence, 8 g a.i./ha", "value": 33}, {"measurement": "AMAPA plant response rating, 0 to 100 scale", "setting": "[6]; preemergence, 16 g a.i./ha", "value": 40}, {"measurement": "GLXMA plant response rating, 0 to 100 scale", "setting": "[7]; postemergence, 8 g a.i./ha", "value": 75}, {"measurement": "GLXMA plant response rating, 0 to 100 scale", "setting": "[7]; postemergence, 16 g a.i./ha", "value": 93}, {"measurement": "GLXMA plant response rating, 0 to 100 scale", "setting": "[7]; preemergence, 8 g a.i./ha", "value": 0}, {"measurement": "GLXMA plant response rating, 0 to 100 scale", "setting": "[7]; preemergence, 16 g a.i./ha", "value": 0}]}]}
